ChEMBL document CHEMBL1909046, “DrugMatrix in vitro pharmacology data”

System: not listed separately
Experiment: DRUGMATRIX: Glutamate, AMPA radioligand binding (ligand: [3H] AMPA)
Format: cell membranes, Rattus norvegicus, Wistar, Cerebral cortex, Membrane
Details: Not Active = under 50% inhibition at 10 µM

Compound	IC50	Ki
CN[C@@H]1[C@@H](O)[C@@H](O[C@@H]2[C@@H](O)[C@H](O[C@H]3OC(CN)=CC[C@H]3N)[C@@H](N)C[C@H]2N)OC[C@]1(C)O [SISOMICIN]	Not Active	Not Active
COC(=O)[C@@H]1[C@H]2C[C@H]3c4[nH]c5ccccc5c4CCN3C[C@@H]2CC[C@@H]1O [YOHIMBINE]	Not Active	Not Active

Target: D(3) dopamine receptor (Homo sapiens, UniProt P35462)
Experiment: DRUGMATRIX: Dopamine D3 radioligand binding (ligand: [3H] Spiperone)
Format: cell membranes, CHO, Membrane
Details: cho

Sequence of D(3) dopamine receptor (P35462 whole entry): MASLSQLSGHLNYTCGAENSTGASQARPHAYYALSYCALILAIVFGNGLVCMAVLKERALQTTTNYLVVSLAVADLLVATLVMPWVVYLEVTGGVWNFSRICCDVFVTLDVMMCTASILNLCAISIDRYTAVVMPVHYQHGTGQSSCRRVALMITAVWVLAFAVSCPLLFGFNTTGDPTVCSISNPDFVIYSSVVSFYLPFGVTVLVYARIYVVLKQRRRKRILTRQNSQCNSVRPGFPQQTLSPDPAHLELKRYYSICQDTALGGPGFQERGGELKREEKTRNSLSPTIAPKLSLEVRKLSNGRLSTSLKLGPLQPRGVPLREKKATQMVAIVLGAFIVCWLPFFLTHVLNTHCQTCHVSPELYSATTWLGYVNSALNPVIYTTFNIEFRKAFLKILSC

Compound	IC50
CN[C@@H]1[C@@H](O)[C@@H](O[C@@H]2[C@@H](O)[C@H](O[C@H]3OC(CN)=CC[C@H]3N)[C@@H](N)C[C@H]2N)OC[C@]1(C)O [SISOMICIN]	Not Active
COC(=O)[C@@H]1[C@H]2C[C@H]3c4[nH]c5ccccc5c4CCN3C[C@@H]2CC[C@@H]1O [YOHIMBINE]	Not Active

Target: T1, Alpha-2A adrenergic receptor (Homo sapiens, UniProt P08913); note: in other assays of this panel Not Active means under 50% inhibition at 10 µM
T1 sequence (P08913 whole entry): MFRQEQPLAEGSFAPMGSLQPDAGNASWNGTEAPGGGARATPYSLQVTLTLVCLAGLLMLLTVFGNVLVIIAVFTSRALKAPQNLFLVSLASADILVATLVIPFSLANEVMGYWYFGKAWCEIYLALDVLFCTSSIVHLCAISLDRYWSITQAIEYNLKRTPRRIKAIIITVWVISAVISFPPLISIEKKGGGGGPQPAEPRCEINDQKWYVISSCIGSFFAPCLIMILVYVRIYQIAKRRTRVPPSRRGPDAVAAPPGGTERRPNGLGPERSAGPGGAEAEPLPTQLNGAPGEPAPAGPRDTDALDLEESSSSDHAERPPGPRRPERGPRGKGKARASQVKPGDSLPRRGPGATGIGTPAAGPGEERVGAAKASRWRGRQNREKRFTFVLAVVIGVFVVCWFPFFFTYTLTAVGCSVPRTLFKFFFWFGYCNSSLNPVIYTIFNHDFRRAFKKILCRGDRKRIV
Experiment: not given
Format: cell membranes, Sf9, Membrane
Details: sf9

Compound	IC50
CN[C@@H]1[C@@H](O)[C@@H](O[C@@H]2[C@@H](O)[C@H](O[C@H]3OC(CN)=CC[C@H]3N)[C@@H](N)C[C@H]2N)OC[C@]1(C)O [SISOMICIN]	Not Active

Target: Mitogen-activated protein kinase 14 (Homo sapiens, UniProt Q16539);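 note: inhibition of p38alpha enzyme activity in a biochemical kinase assay, with myelin basic protein serving as substrate; in other assays of this panel Not Active means under 50% inhibition at 10 µM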
Experiment: not given
Design: species or system Escherichia coli
Details: not given

Sequence of Mitogen-activated protein kinase 14 (Q16539 whole entry): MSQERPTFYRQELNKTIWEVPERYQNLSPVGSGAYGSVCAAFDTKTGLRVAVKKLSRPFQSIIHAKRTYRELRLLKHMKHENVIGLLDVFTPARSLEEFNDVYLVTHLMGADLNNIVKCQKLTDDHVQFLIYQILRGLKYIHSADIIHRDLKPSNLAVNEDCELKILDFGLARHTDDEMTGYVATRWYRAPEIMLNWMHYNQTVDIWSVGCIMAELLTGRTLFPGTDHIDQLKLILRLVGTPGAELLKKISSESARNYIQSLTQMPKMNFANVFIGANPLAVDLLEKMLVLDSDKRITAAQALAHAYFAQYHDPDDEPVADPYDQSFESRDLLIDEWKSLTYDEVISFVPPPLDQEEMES

Compound	IC50
CN[C@@H]1[C@@H](O)[C@@H](O[C@@H]2[C@@H](O)[C@H](O[C@H]3OC(CN)=CC[C@H]3N)[C@@H](N)C[C@H]2N)OC[C@]1(C)O [SISOMICIN]	Not Active
COC(=O)[C@@H]1[C@H]2C[C@H]3c4[nH]c5ccccc5c4CCN3C[C@@H]2CC[C@@H]1O [YOHIMBINE]	Not Active

Target: T2, Adenosine receptor A1 (Homo sapiens, UniProt P30542);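 note: radioligand binding assay at the adenosine A1 receptor, with DPCPX serving as the labelled ligand; in other assays of this panel Not Active means under 50% inhibition at 10 µM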
T2 sequence (P30542 whole entry): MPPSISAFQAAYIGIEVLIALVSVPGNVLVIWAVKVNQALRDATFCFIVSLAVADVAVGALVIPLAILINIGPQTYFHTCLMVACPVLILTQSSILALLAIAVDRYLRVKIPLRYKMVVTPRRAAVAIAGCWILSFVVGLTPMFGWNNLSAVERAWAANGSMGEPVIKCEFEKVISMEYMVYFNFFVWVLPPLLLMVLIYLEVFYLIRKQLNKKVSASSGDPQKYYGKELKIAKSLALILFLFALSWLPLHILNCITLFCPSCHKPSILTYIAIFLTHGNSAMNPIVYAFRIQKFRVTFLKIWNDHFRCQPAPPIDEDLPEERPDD
Experiment: not given
Format: cell membranes, CHO, Membrane
Details: cho

Compound	IC50
CN[C@@H]1[C@@H](O)[C@@H](O[C@@H]2[C@@H](O)[C@H](O[C@H]3OC(CN)=CC[C@H]3N)[C@@H](N)C[C@H]2N)OC[C@]1(C)O [SISOMICIN]	Not Active
COC(=O)[C@@H]1[C@H]2C[C@H]3c4[nH]c5ccccc5c4CCN3C[C@@H]2CC[C@@H]1O [YOHIMBINE]	Not Active

System: not listed separately
Experiment: DRUGMATRIX: Calcium Channel Type L, Dihydropyridine radioligand binding (ligand: [3H] Nitrendipine)
Format: cell membranes, Rattus norvegicus, Wistar, Cerebral cortex, Membrane
Details: Not Active = under 50% inhibition at 10 µM

Compound	IC50	Ki
CN[C@@H]1[C@@H](O)[C@@H](O[C@@H]2[C@@H](O)[C@H](O[C@H]3OC(CN)=CC[C@H]3N)[C@@H](N)C[C@H]2N)OC[C@]1(C)O [SISOMICIN]	Not Active	Not Active
COC(=O)[C@@H]1[C@H]2C[C@H]3c4[nH]c5ccccc5c4CCN3C[C@@H]2CC[C@@H]1O [YOHIMBINE]	Not Active	Not Active

Target: 5-hydroxytryptamine receptor 2B (Homo sapiens, UniProt P41595); note: in other assays of this panel Not Active means under 50% inhibition at 10 µM
Experiment: not given
Format: cell membranes, CHO-K1, Membrane
Details: cho-k1

Sequence of 5-hydroxytryptamine receptor 2B (P41595 whole entry): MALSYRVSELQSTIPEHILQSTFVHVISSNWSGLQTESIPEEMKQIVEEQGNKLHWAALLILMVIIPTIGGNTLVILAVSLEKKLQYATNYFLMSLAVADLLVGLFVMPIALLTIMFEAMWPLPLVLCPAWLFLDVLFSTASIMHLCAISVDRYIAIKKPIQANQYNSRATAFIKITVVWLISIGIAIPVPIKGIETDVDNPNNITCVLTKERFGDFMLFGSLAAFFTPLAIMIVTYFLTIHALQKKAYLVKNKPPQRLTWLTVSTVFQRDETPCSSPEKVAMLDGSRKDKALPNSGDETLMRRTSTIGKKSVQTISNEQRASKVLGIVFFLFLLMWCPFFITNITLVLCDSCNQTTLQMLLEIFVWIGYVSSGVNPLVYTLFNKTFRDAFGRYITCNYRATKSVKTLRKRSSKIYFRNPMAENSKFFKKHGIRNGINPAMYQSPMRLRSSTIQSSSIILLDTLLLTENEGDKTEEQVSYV

Compound	IC50
CN[C@@H]1[C@@H](O)[C@@H](O[C@@H]2[C@@H](O)[C@H](O[C@H]3OC(CN)=CC[C@H]3N)[C@@H](N)C[C@H]2N)OC[C@]1(C)O [SISOMICIN]	Not Active

Target: Aldo-keto reductase family 1 member B1 (Rattus norvegicus, UniProt P07943)
Experiment: not given
Format: tissue-based, Lens of camera-type eye
Details: not given

Compound	IC50
CN[C@@H]1[C@@H](O)[C@@H](O[C@@H]2[C@@H](O)[C@H](O[C@H]3OC(CN)=CC[C@H]3N)[C@@H](N)C[C@H]2N)OC[C@]1(C)O [SISOMICIN]	Not Active
COC(=O)[C@@H]1[C@H]2C[C@H]3c4[nH]c5ccccc5c4CCN3C[C@@H]2CC[C@@H]1O [YOHIMBINE]	Not Active

Target: C-C chemokine receptor type 5 (Homo sapiens, UniProt P51681); note: in other assays of this panel Not Active means under 50% inhibition at 10 µM
Experiment: not given
Format: cell membranes, Membrane
Details: hek293

Sequence of C-C chemokine receptor type 5 (P51681 whole entry): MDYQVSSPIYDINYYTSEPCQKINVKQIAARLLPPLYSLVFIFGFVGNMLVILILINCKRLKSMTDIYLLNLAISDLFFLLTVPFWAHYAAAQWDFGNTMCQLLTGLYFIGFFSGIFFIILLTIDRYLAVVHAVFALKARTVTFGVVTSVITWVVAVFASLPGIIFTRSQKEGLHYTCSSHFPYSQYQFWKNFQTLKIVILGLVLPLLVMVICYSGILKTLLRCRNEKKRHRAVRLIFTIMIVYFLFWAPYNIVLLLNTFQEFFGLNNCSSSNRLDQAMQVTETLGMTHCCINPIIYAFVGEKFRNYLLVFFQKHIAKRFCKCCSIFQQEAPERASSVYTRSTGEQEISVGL

Compound	IC50
CN[C@@H]1[C@@H](O)[C@@H](O[C@@H]2[C@@H](O)[C@H](O[C@H]3OC(CN)=CC[C@H]3N)[C@@H](N)C[C@H]2N)OC[C@]1(C)O [SISOMICIN]	Not Active
COC(=O)[C@@H]1[C@H]2C[C@H]3c4[nH]c5ccccc5c4CCN3C[C@@H]2CC[C@@H]1O [YOHIMBINE]	Not Active

Target: T3, Cholecystokinin receptor type A (Homo sapiens, UniProt P32238); note: in other assays of this panel Not Active means under 50% inhibition at 10 µM
T3 sequence (P32238 whole entry): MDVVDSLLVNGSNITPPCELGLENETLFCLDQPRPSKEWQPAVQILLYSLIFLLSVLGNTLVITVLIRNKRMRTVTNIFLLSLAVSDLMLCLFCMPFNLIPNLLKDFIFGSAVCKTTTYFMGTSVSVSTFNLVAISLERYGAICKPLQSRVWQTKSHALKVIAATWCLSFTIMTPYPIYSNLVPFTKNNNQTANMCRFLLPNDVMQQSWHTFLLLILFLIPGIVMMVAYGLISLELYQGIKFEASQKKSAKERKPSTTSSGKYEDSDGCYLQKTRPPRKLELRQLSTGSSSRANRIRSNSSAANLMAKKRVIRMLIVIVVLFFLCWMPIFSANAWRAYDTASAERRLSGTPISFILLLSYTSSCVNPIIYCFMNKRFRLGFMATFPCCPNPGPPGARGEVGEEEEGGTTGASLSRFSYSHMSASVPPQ
Experiment: not given
Format: cell membranes, Membrane
Details: 1321-n1

Compound	IC50
CN[C@@H]1[C@@H](O)[C@@H](O[C@@H]2[C@@H](O)[C@H](O[C@H]3OC(CN)=CC[C@H]3N)[C@@H](N)C[C@H]2N)OC[C@]1(C)O [SISOMICIN]	Not Active
COC(=O)[C@@H]1[C@H]2C[C@H]3c4[nH]c5ccccc5c4CCN3C[C@@H]2CC[C@@H]1O [YOHIMBINE]	Not Active

Target: Beta-2 adrenergic receptor (Homo sapiens, UniProt P07550)
Experiment: DRUGMATRIX: Adrenergic beta2 radioligand binding (ligand: [3H] CGP-12177)
Format: cell membranes, Membrane
Details: cho; Not Active = under 50% inhibition at 10 µM

Sequence of Beta-2 adrenergic receptor (P07550 whole entry): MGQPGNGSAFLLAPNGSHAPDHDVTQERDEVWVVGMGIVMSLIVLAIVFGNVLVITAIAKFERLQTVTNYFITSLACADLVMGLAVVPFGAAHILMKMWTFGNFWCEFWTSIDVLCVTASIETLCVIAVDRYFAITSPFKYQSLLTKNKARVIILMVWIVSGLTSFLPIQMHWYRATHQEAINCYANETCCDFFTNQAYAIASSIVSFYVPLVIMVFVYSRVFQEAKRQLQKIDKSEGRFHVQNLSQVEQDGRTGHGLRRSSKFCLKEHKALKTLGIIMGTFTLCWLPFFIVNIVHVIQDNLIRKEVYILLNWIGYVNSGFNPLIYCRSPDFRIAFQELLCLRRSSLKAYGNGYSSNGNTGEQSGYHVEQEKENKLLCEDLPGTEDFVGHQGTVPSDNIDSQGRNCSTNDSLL

Compound	IC50
CN[C@@H]1[C@@H](O)[C@@H](O[C@@H]2[C@@H](O)[C@H](O[C@H]3OC(CN)=CC[C@H]3N)[C@@H](N)C[C@H]2N)OC[C@]1(C)O [SISOMICIN]	Not Active
COC(=O)[C@@H]1[C@H]2C[C@H]3c4[nH]c5ccccc5c4CCN3C[C@@H]2CC[C@@H]1O [YOHIMBINE]	Not Active

Target: Substance-P receptor (Homo sapiens, UniProt P25103); note: in other assays of this panel Not Active means under 50% inhibition at 10 µM
Experiment: not given
Format: cell membranes, CHO, Membrane
Details: cho

Sequence of Substance-P receptor (P25103 whole entry): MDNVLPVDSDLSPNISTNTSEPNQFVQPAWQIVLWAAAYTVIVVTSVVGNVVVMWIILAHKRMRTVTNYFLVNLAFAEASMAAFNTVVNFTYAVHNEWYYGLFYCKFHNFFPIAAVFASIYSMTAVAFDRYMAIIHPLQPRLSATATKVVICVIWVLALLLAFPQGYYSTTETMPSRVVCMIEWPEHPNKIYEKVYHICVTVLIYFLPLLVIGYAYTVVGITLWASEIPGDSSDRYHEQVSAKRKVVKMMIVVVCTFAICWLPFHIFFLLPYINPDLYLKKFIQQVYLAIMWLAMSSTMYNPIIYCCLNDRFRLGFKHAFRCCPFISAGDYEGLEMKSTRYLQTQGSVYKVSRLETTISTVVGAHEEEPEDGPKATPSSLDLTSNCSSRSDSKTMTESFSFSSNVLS

Compound	IC50
CN[C@@H]1[C@@H](O)[C@@H](O[C@@H]2[C@@H](O)[C@H](O[C@H]3OC(CN)=CC[C@H]3N)[C@@H](N)C[C@H]2N)OC[C@]1(C)O [SISOMICIN]	Not Active
COC(=O)[C@@H]1[C@H]2C[C@H]3c4[nH]c5ccccc5c4CCN3C[C@@H]2CC[C@@H]1O [YOHIMBINE]	Not Active

Target: Vascular endothelial growth factor receptor 1 (Homo sapiens, UniProt P17948); note: in other assays of this panel Not Active means under 50% inhibition at 10 µM
Experiment: not given
Format: cell-based
Details: huvec

Sequence of Vascular endothelial growth factor receptor 1 (P17948 whole entry): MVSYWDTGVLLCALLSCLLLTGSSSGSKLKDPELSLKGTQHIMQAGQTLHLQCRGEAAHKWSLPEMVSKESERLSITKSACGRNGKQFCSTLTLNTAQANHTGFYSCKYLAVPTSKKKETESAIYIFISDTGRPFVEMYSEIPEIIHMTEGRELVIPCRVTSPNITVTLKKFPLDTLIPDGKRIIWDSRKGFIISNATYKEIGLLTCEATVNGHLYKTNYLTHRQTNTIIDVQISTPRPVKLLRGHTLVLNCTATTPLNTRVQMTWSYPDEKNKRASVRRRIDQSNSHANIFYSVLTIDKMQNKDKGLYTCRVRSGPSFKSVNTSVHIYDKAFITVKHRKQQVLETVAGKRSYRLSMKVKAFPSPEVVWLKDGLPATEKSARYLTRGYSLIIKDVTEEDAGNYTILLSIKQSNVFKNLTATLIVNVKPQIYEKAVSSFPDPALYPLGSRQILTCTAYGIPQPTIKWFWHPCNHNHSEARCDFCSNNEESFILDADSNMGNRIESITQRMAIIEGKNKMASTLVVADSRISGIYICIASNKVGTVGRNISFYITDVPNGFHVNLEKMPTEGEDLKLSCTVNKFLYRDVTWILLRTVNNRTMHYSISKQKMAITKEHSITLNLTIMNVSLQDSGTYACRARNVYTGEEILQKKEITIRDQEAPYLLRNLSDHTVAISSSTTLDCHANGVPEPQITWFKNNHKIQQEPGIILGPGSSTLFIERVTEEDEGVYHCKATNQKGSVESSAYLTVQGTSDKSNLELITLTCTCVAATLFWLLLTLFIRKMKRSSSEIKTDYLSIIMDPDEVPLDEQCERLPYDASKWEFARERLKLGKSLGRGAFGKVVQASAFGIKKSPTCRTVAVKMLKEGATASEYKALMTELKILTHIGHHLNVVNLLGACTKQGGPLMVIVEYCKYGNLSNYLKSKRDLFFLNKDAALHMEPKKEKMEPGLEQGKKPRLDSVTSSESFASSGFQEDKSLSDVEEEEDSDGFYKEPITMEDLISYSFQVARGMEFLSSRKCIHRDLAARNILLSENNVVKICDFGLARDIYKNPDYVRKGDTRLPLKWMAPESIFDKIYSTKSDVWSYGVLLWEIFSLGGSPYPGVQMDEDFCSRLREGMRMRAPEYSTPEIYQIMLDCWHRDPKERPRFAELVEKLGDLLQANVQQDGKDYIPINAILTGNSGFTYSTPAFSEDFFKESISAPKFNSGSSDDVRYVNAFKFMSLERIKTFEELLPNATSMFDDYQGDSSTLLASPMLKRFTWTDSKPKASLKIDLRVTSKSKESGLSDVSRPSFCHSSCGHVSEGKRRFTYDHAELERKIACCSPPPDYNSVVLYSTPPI

Compound	IC50
CN[C@@H]1[C@@H](O)[C@@H](O[C@@H]2[C@@H](O)[C@H](O[C@H]3OC(CN)=CC[C@H]3N)[C@@H](N)C[C@H]2N)OC[C@]1(C)O [SISOMICIN]	Not Active
COC(=O)[C@@H]1[C@H]2C[C@H]3c4[nH]c5ccccc5c4CCN3C[C@@H]2CC[C@@H]1O [YOHIMBINE]	Not Active

System: not listed separately
Experiment: DRUGMATRIX: beta-Lactamase enzyme inhibition (substrate: Nitrocefin)
Design: species or system Bacillus cereus
Details: Not Active = under 50% inhibition at 10 µM

Compound	IC50	Ki
CN[C@@H]1[C@@H](O)[C@@H](O[C@@H]2[C@@H](O)[C@H](O[C@H]3OC(CN)=CC[C@H]3N)[C@@H](N)C[C@H]2N)OC[C@]1(C)O [SISOMICIN]	Not Active	Not Active
COC(=O)[C@@H]1[C@H]2C[C@H]3c4[nH]c5ccccc5c4CCN3C[C@@H]2CC[C@@H]1O [YOHIMBINE]	Not Active	Not Active

Target: T4, Polyunsaturated fatty acid lipoxygenase ALOX15 (Oryctolagus cuniculus, UniProt P12530)
T4 sequence (P12530 whole entry): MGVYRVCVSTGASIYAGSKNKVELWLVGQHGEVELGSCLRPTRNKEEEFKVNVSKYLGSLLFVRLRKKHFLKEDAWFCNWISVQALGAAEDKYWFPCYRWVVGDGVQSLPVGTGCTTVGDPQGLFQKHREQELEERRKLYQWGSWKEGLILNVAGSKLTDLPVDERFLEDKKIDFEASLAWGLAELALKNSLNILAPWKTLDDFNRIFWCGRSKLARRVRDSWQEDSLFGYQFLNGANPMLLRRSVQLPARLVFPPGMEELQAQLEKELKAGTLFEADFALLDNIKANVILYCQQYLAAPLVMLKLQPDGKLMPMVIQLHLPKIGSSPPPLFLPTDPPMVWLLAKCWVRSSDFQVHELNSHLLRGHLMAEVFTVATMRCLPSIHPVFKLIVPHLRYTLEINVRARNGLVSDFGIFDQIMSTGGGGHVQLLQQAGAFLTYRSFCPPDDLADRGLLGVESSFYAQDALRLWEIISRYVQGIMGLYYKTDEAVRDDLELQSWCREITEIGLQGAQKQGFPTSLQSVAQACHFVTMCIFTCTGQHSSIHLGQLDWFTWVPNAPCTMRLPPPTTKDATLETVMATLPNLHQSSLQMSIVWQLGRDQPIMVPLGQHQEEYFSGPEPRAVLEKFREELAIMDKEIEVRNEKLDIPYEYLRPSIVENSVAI
Experiment: biochemical
Format: tissue-based, Reticulocytes
Details: reticulocytes

Compound	IC50
CN[C@@H]1[C@@H](O)[C@@H](O[C@@H]2[C@@H](O)[C@H](O[C@H]3OC(CN)=CC[C@H]3N)[C@@H](N)C[C@H]2N)OC[C@]1(C)O [SISOMICIN]	Not Active
COC(=O)[C@@H]1[C@H]2C[C@H]3c4[nH]c5ccccc5c4CCN3C[C@@H]2CC[C@@H]1O [YOHIMBINE]	Not Active

System: not listed separately
Experiment: DRUGMATRIX: Atrial Natriuretic Factor (ANF) radioligand binding (ligand: [125I] ANF (rat))
Format: cell membranes, Cavia porcellus, Dunkin-Hartley, Adrenal gland, Membrane
Details: Not Active = under 50% inhibition at 10 µM

Compound	IC50	Ki
CN[C@@H]1[C@@H](O)[C@@H](O[C@@H]2[C@@H](O)[C@H](O[C@H]3OC(CN)=CC[C@H]3N)[C@@H](N)C[C@H]2N)OC[C@]1(C)O [SISOMICIN]	Not Active	Not Active
COC(=O)[C@@H]1[C@H]2C[C@H]3c4[nH]c5ccccc5c4CCN3C[C@@H]2CC[C@@H]1O [YOHIMBINE]	Not Active	Not Active

Target: D(1A) dopamine receptor (Homo sapiens, UniProt P21728)
Experiment: DRUGMATRIX: Dopamine D1 radioligand binding (ligand: [3H] SCH-23390)
Format: cell membranes, CHO, Membrane
Details: cho; Not Active = under 50% inhibition at 10 µM

Sequence of D(1A) dopamine receptor (P21728 whole entry): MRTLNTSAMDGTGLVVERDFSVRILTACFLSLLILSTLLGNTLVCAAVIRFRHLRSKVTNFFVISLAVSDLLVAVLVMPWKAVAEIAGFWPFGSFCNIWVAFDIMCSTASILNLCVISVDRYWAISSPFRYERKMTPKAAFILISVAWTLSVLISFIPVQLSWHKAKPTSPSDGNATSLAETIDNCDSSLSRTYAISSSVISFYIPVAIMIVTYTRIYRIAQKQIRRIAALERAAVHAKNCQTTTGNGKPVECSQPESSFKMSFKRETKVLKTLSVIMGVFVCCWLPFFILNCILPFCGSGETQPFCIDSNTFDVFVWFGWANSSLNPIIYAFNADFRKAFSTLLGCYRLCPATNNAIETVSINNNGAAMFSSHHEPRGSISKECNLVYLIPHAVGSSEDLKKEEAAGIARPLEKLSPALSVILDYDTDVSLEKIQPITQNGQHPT

Compound	IC50
CN[C@@H]1[C@@H](O)[C@@H](O[C@@H]2[C@@H](O)[C@H](O[C@H]3OC(CN)=CC[C@H]3N)[C@@H](N)C[C@H]2N)OC[C@]1(C)O [SISOMICIN]	Not Active
COC(=O)[C@@H]1[C@H]2C[C@H]3c4[nH]c5ccccc5c4CCN3C[C@@H]2CC[C@@H]1O [YOHIMBINE]	Not Active
